From patent US7173025B1, “Aminoheterocyclic derivatives as antithrombotic or anticoagulant agents” (Zeneca Limited, priority 1996, dated 2007)
Where a name gives a salt, the structure may show the parent alone.

Experiments:
human thrombin = human thrombin (Homo sapiens, UniProt P00734); experiment: Measurement of Thrombin Inhibition (chromogenic substrate S-2238); format: biochemical; conditions: test b); read-out: IC50 against thrombin
Protocol: b) Measurement of Thrombin Inhibition
The procedure of method a) was repeated except that human thrombin (0.005 Units/ml) and the chromogenic substrate S-2238 (KabiVitum AB, 7 μM) were employed.

human Factor Xa = human Factor Xa (Homo sapiens, UniProt P00742); experiment: Measurement of Factor Xa Inhibition (chromogenic substrate S-2765); format: biochemical; conditions: test a); read-out: IC50 against Factor Xa
Protocol: a) Measurement of Factor Xa Inhibition
An in vitro assay system was carried out based on the method of Kettner et al., J. Biol. Chem., 1990, 265, 18289-18297, whereby various concentrations of a test compound were dissolved in DMSO and diluted in a pH7.5 buffer containing 0.5% of a polyethylene glycol (PEG 6000) and incubated at 37° C. with human Factor Xa (0.001 Units/ml, 0.3 ml) for 15 minutes. The chromogenic substrate S-2765 (KabiVitum AB, 20 μM) was added and the mixture was incubated at 37° C. for 20 minutes whilst the absorbance at 405 nm was measured. The maximum reaction velocity (Vmax) was determined and compared with that of a control sample containing no test compound. Inhibitor potency was expressed as an IC50 value.

blood plasma = experiment: Measurement of Anticoagulant Activity (in vitro prothrombin time test); parameters: species or system human, rat or rabbit; conditions: test c)
Protocol: c) Measurement of Anticoagulant Activity
An in vitro assay whereby human, rat or rabbit venous blood was collected and added directly to a sodium citrate solution (3.2 g/100 ml, 9 parts blood to 1 part citrate solution). Blood plasma was prepared by centrifugation (1000 g, 15 minutes) and stored at 2-4° C. Conventional prothrombin time (PT) tests were carried out in the presence of various concentrations of a test compound and the concentration of test compound required to double the clotting time, hereinafter referred to as CT2, was determined. In the PT test, the test compound and blood plasma were incubated at 37° C. for 10 minutes. Tissue thromboplastin with calcium (Sigma Limited, Poole, England) was added and fibrin formation and the time required for a clot to form were determined.

human Factor Xa, sequence (P00742 235-488 limits assumed): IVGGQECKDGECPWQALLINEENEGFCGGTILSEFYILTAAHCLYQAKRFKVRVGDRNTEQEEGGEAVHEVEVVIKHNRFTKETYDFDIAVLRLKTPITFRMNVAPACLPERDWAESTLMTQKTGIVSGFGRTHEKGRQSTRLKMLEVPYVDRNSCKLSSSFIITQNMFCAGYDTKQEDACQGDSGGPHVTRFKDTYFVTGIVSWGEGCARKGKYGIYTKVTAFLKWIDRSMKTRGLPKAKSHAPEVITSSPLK
human Factor Xa, sequence (P00742 41-179 partner limits assumed): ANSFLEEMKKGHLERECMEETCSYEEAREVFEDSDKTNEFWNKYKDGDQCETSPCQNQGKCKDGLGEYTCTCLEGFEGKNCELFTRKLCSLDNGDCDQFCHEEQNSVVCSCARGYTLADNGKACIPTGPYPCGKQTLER

Cc1ccc(S(=O)(=O)Nc2ccc(OC3CCN(c4ccncc4)CC3)cc2)cc1 (as salt: hydrochloride) [Example 7, N-{4-[1-(4-pyridyl)piperidin-4-yloxy]phenyl}-4-toluenesulphonamide]
melting point: 270 to 272 °C

O=S(=O)(Nc1cccc(OC2CCN(c3ccncc3)CC2)c1)c1ccc2cc(Br)ccc2c1 (as salt: hydrochloride) [Example 16, 6-bromo-N-{3-[1-(4-pyridyl)piperidin-4-yloxy]phenyl}-2-naphthalenesulphonamide]
melting point: 298 to 300 °C

O=S(=O)(c1ccc(-c2ccc(Br)cc2)cc1)N(c1ccc(OCC2CCN(c3ccncc3)CC2)cc1)S(=O)(=O)c1ccc(-c2ccc(Br)cc2)cc1 [Example 14, 4′-bromo-N-(4′-bromo-4-biphenylylsulphonyl)-N-{4-[1-(4-pyridyl)piperidin-4-ylmethoxy]phenyl}-4-biphenylylsulphonamide]
melting point: 136 to 140 °C

O=S(=O)(c1ccc(OC2CCN(c3ccncc3)CC2)cc1)c1ccc2cc(Br)ccc2c1 [Example 22, 4-[4-(6-bromonaphth-2-ylsulphonyl)phenoxy]-1-(4-pyridyl)piperidine]
melting point: 180 to 183 °C

O=S(=O)(Nc1ccccc1OCC1CCN(c2ccncc2)CC1)c1ccc2cc(Br)ccc2c1 [Example 20, 6-bromo-N-{2-[1-(4-pyridyl)piperidin-4-ylmethoxy]phenyl}-2-naphthalenesulphonamide]
melting point: 197 to 200 °C

Cc1ccc(S(=O)(=O)N(c2ccc(OC3CCN(c4ccncc4)CC3)cc2)S(=O)(=O)c2ccc(C)cc2)cc1 [Example 8, N-{4-[1-(4-pyridyl)piperidin-4-yloxy]phenyl}-N-(4-tolylsulphonyl)-4-toluenesulphonamide]
melting point: 196 to 198 °C

O=S(=O)(c1ccc2cc(Br)ccc2c1)N(c1ccc(OCC2CCN(c3ccncc3)CC2)cc1)S(=O)(=O)c1ccc2cc(Br)ccc2c1 [Example 15, 6-bromo-N-(6-bromonaphth-2-ylsulphonyl)-N-{4-[1-(4-pyridyl)piperidin-4-ylmethoxy]phenyl}-2-naphthalenesulphonamide]
melting point: 246 to 252 °C

O=S(=O)(Nc1ccc(OCC2CCN(c3ccncc3)CC2)cc1)c1ccc2cc(Br)ccc2c1 (as salt: hydrochloride) [Example 12, 6-bromo-N-{4-[1-(4-pyridyl)piperidin-4-ylmethoxy]-phenyl}-2-naphthalenesulphonamide]
melting point: 167 to 169 °C

O=C(c1ccc(Sc2ccc3cc(Br)ccc3c2)cc1)N1CCN(c2ccncc2)CC1 [Example 27, 1-[4-(6-bromonaphth-2-ylthio)benzoyl]-4-(4-pyridyl)piperazine]
melting point: 210 to 213 °C

O=S(=O)(c1ccc(S(=O)(=O)N2CCN(c3ccncc3)CC2)cc1)c1ccc2cc(Br)ccc2c1 (as salt: trifluoroacetate) [Example 25, 4-[4-(6-bromonaphth-2-ylsulphonyl)phenylsulphonyl]-1-(4-pyridyl)piperazine]
melting point: 236 to 238 °C

O=S(=O)(/C=C/c1ccc(Cl)cc1)Nc1ccc(OCC2CCN(c3ccncc3)CC2)cc1 (as salt: hydrochloride) [Example 13, 4-chloro-N-{4-[1-(4-pyridyl)piperidin-4-ylmethoxy]phenyl}-(E)-styrylsulphonamide]
melting point: 220 to 223 °C

O=C(c1ccc(S(=O)(=O)c2ccc3cc(Cl)ccc3c2)cc1)N1CCN(c2ccncc2)CC1 [Example 1, 1-[4-(6-chloronaphth-2-ylsulphonyl)benzoyl]-4-(4-pyridyl)piperazine]
melting point: 267 to 269 °C | IC50 (human thrombin): > 40000 nM | IC50 (human Factor Xa): 13 nM | CT2 (PT), concentration of test compound required to double the clotting time (blood plasma): 5 µM

O=S(=O)(Nc1ccc(OCC2CCN(c3ccncc3)CC2)cc1)c1ccc(-c2ccc(Br)cc2)cc1 (as salt: hydrochloride) [Example 11, 4′-bromo-N-{4-[1-(4-pyridyl)piperidin-4-ylmethoxy]phenyl}-4-biphenylylsulphonamide]
melting point: 293 to 295 °C

O=S(=O)(/C=C/c1ccc(Cl)cc1)Nc1cccc(OC2CCN(c3ccncc3)CC2)c1 (as salt: hydrochloride) [Example 21, 4-chloro-N -{3-[1-(4-pyridyl)piperidin-4-yloxy]phenyl}-(E)-styrylsulphonamide]
melting point: 147 to 150 °C

O=S(=O)(Nc1ccc(OC2CCN(c3ccncc3)CC2)cc1)c1ccc(-c2ccc(Br)cc2)cc1 (as salt: hydrochloride) [Example 4, 4′-bromo-N-{4-[1-(4-pyridyl)piperidin-4-yloxy]phenyl}-4-biphenylylsulphonamide]
melting point: 302 to 304 °C
